# Assays:
# C2Cl2 myoblasts = test: myotube fusion and degeneration in differentiated C2Cl2 cells left in exhausted media; type: cell-based; settings: 200 nM pre-treatment
# Method: C2Cl2 myoblasts were seeded at 100,000 in 30 mm plate in growth medium (Phenol red-free RMPI containing 10% FBS, Sodium pyruvate and Ala-Glu), and “pre-treated” with DMSO or 200 nM of compounds 13 or 17. At confluence cells were shifted to differentiation media (high glucose DMEM, +0.2% HS+1× Insulin/Transferrin/Selenium (Life Tech 41400-045)+Glutamine, without Pyruvate). Fully differentiated C2Cl2-derived myotubes were left in culture without media renewal for 8 days followed by media renewal and microscopic examination.
# [1] = system: MDA-MB-231 breast cancer cells; test: cytotoxicity, cell survival (CellTiterGlo) in MDA-MB-231; type: cell-based; settings: MDA-MB-231 cells
# Method: (§1) The cytotoxicity of compounds was examined and directly compared to compound 17, by measuring cell survival of clonal tumor cell lines IMR-32, BE2C (neuroblastoma), as well as MDA-MB-231, BT20, HCC-38 (Basal) and MCF7 (luminal) breast cancer cells (ATCC). Cells were cultured in phenol red-free RPMI medium supplemented with 10% FBS and 1 mM Ala-Glu. Typically, 10,000-20,000 cells/well were plated in a 96 well plate (Costar 3197). Cells were exposed to compounds or vehicle (1% DMSO final). Cells were maintained in the presence of compound for four or five days. Media and compounds were renewed every 48 hours. Cell survival was measured using the luminescence CellTiterGlo kit (Promega Corporation) and expressed as relative light unit as fold over DMSO.
# [2] = system: IMR-32 neuroblastoma cells; test: cytotoxicity, cell survival (CellTiterGlo) in IMR-32; type: cell-based; settings: relative to compounds 17 and 8
# Method: as §1
# [3] = target: T1, purified recombinant human HDAC-6 (Homo sapiens, UniProt Q9UBN7); test: HDAC-6 enzymatic inhibition (AMC fluorogenic peptide deacetylation); type: biochemical; settings: relative to compound 17
# T1 construct: purchased Cayman Chem 10009465
# T1 sequence (Q9UBN7 1-1215): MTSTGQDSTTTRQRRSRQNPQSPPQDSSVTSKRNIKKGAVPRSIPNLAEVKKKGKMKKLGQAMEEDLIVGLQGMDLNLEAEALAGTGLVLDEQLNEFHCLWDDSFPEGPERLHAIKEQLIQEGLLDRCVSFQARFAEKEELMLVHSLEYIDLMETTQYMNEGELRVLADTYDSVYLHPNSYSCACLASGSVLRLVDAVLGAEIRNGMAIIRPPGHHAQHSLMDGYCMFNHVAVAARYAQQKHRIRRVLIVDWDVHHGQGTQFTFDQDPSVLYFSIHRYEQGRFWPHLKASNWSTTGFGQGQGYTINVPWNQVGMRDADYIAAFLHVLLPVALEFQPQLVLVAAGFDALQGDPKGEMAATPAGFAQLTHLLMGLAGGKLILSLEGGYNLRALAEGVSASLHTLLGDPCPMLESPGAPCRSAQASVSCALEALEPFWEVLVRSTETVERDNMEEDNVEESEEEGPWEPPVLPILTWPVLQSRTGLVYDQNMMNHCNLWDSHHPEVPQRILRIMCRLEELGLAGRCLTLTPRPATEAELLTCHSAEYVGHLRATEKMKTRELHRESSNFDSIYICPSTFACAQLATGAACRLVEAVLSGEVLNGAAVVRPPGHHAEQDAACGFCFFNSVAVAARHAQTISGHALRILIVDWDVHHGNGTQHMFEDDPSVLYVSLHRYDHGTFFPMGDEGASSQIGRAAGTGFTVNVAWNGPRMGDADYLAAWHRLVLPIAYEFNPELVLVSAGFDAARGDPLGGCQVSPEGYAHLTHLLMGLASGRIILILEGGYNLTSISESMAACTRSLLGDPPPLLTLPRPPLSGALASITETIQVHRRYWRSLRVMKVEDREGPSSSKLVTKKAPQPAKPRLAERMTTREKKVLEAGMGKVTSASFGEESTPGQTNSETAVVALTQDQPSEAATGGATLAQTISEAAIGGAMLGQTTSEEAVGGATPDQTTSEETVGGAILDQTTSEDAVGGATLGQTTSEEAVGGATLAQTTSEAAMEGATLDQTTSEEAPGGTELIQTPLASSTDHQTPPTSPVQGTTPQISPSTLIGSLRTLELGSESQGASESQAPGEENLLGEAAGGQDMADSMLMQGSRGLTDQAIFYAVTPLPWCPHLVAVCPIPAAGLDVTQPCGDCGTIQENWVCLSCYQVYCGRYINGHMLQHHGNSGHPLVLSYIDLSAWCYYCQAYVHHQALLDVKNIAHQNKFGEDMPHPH
# Method: (§2) The effect of compounds on the enzymatic activity of purified recombinant human HDAC-1, -2, -3, -6, and -8 activity and of purified rat liver HDAC was examined by measuring the deacetylation of synthetic peptides in various preparations of HDACs. HDAC assays were performed using a two-step enzymatic reaction where enzyme activity is correlated to the release of […] (AMC). AMC fluorescence is measured in a fluorescent plate reading using λex380 nm and λen440 nm.
# (§3) The reaction was allowed to proceed for 40 min at 37° C., after which developer solution (0.5% trypsin, 10 μM trichostatin A (TSA)) was added to obtain a final concentration of 0.1% trypsin, 2 μM TSA. After 30 minutes at room temperature, the amount of free fluorogenic AMC was measured as described above.
# [4] = target: T2, purified recombinant human HDAC-8 (Homo sapiens, UniProt Q9BY41); test: HDAC-8 enzymatic inhibition (Boc-Lys(Tfa)-AMC / HDAC-Glo I/II); type: biochemical; settings: relative to compound 17
# T2 construct: purchased Cayman Chem 10009465 (AMC assay (so in the source)); 19380 (HDAC-Glo assay)
# T2 sequence (Q9BY41 1-377): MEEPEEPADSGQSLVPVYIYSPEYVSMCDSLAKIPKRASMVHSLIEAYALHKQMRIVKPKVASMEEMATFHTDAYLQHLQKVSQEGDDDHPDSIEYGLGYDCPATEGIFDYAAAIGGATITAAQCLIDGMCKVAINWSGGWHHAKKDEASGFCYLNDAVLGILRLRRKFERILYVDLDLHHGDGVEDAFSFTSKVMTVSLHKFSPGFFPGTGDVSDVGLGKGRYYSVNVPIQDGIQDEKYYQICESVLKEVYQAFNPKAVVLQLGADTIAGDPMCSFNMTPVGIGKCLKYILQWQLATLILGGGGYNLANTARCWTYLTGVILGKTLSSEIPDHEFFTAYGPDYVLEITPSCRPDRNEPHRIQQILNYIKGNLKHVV
# Method: as §2
# HDAC-8, HDAC-9, HDAC-10 and HDAC-11 were assayed using HDAC-Glo™ I/II Kit (Promega Corporation G6421) in a total volume of 110 μl following the manufacturer's instructions.
# as §3
smiles,measurement,setting,value
CC1(C)CCC(C)(C)c2cc(-c3cc4cc(C(=O)NO)ccc4[nH]3)ccc21 [Compound 13],cellular fusion after 72 hours differentiation versus DMSO,C2Cl2 myoblasts,extensive cellular fusion
same,myotube structural atrophy in exhausted media for over 8 days,C2Cl2 myoblasts,very little structural alteration
same,"cytotoxic potency compared with compound 17, SAHA, Ricolinistat",[1],"more potent than compound 17, SAHA or Ricolinistat"
same,fold more potent than compounds 17 and 8 in killing IMR-32 cells,[2],ten
same,fold more potent than compound 17 in HDAC-6 inhibition,[3],at least 50
same,times/fold more potent than compound 17 in HDAC-8 inhibition,[4],at least 13

# Reference: patent publication US10752591B2, “18-20 member bi-polycyclic compounds” (Haro Pharmaceutical Inc., priority 2014, dated 2020)
